In PubChem BioAssay (NCI):
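48-hour exposure; five concentrations; linearly interpolated endpoints. At the GI50, growth is halved. TGI is the concentration that stops growth completely.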

Legend:
Assay in all cases: inhibition of tumour cell growth, NCI panel, 48 h
[1] = system: 786-0 renal
[2] = system: A498 renal
[3] = system: A549 NSCLC
[4] = system: ACHN renal
[5] = system: BT-549 breast
[6] = system: CAKI-1 renal
[7] = system: CCRF-CEM leukemia
[8] = system: COLO 205 colon
[9] = system: DU-145 prostate
[10] = system: EKVX NSCLC
[11] = system: HCT-116 colon
[12] = system: HCT-15 colon
[13] = system: HL-60(TB) leukemia
[14] = system: HOP-62 NSCLC
[15] = system: HOP-92 NSCLC
[16] = system: HS 578T breast
[17] = system: HT29 colon
[18] = system: IGROV1 ovarian
[19] = system: K-562 leukemia
[20] = system: KM12 colon
[21] = system: LOX IMVI melanoma
[22] = system: M14 melanoma
[23] = system: MCF7 breast
[24] = system: MDA-MB-231 breast
[25] = system: MDA-MB-435
[26] = system: MOLT-4 leukemia
[27] = system: NCI-H23 lung
[28] = system: NCI-H460 lung
[29] = system: NCI-H522 lung
[30] = system: NCI/ADR-RES ovarian
[31] = system: OVCAR-3 ovarian
[32] = system: OVCAR-4 ovarian
[33] = system: OVCAR-5 ovarian
[34] = system: OVCAR-8 ovarian
[35] = system: PC-3 prostate
[36] = system: RPMI-8226 leukemia
[37] = system: SF-268 CNS
[38] = system: SF-295 CNS
[39] = system: SF-539 CNS
[40] = system: SK-MEL-2 melanoma
[41] = system: SK-MEL-5 melanoma
[42] = system: SK-OV-3 ovarian
[43] = system: SN12C renal
[44] = system: SNB-19 CNS
[45] = system: SR leukemia
[46] = system: SW-620 colon
[47] = system: TK-10 renal
[48] = system: U251 CNS
[49] = system: UACC-257 melanoma
[50] = system: UACC-62 melanoma
[51] = system: UO-31 renal
[52] = system: HCC-2998 colon
[53] = system: MALME-3M melanoma
[54] = system: NCI-H226 lung
[55] = system: SK-MEL-28 melanoma
[56] = system: SNB-75 CNS
[57] = system: T-47D breast

Question: Which results are given for `COc1cc(Br)cc2cc(-c3cn4c(n3)sc3ccccc34)c(=O)oc12`?
Answer: TGI [1]: > 75 µM; TGI [2]: 51 µM; TGI [3]: > 75 µM; TGI [4]: > 75 µM; TGI [5]: 70.7 µM; TGI [6]: > 75 µM; TGI [7]: > 75 µM; TGI [8]: > 75 µM; TGI [9]: 48.1 µM; TGI [10]: 52.1 µM; TGI [11]: > 75 µM; TGI [12]: > 75 µM; TGI [13]: 36.2 µM; TGI [14]: > 75 µM; TGI [15]: 47.5 µM; TGI [16]: 39.9 µM; TGI [17]: > 75 µM; TGI [18]: 34.9 µM; TGI [19]: 46.4 µM; TGI [20]: > 75 µM; TGI [21]: 56.4 µM; TGI [22]: > 75 µM; TGI [23]: > 75 µM; TGI [24]: 72.5 µM; TGI [25]: > 75 µM; TGI [26]: 65.4 µM; TGI [27]: > 75 µM; TGI [28]: > 75 µM; TGI [29]: 28.7 µM; TGI [30]: > 75 µM; TGI [31]: 54.5 µM; TGI [32]: > 75 µM; TGI [33]: > 75 µM; TGI [34]: > 75 µM; TGI [35]: 41.2 µM; TGI [36]: 49.8 µM; TGI [37]: > 75 µM; TGI [38]: 58.4 µM; TGI [39]: > 75 µM; TGI [40]: 70.6 µM; TGI [41]: > 75 µM; TGI [42]: > 75 µM; TGI [43]: > 75 µM; TGI [44]: > 75 µM; TGI [45]: > 75 µM; TGI [46]: > 75 µM; TGI [47]: > 75 µM; TGI [48]: 72.1 µM; TGI [49]: > 75 µM; TGI [50]: > 75 µM; TGI [51]: > 75 µM

Question: What does the source list for `COc1cc2c3c(n(CCCN)c(=O)c2cc1OC)-c1ccc(C#N)cc1C3=O`?
Answer: GI50 [1]: 4.43 µM; TGI [1]: 20.3 µM; GI50 [3]: 5.53 µM; TGI [3]: 22.1 µM; GI50 [4]: 14.9 µM; TGI [4]: 28.5 µM; GI50 [6]: 34.9 µM; TGI [6]: > 100 µM; GI50 [7]: 6.44 µM; TGI [7]: 31.7 µM; GI50 [8]: 13.2 µM; TGI [8]: 28.7 µM; GI50 [9]: 12.3 µM; TGI [9]: 25.5 µM; GI50 [10]: 19 µM; TGI [10]: 41.9 µM; GI50 [52]: 3.05 µM; TGI [52]: 15 µM; GI50 [11]: 15.8 µM; TGI [11]: 32.3 µM; GI50 [12]: 15.4 µM; TGI [12]: 30.6 µM; GI50 [14]: 4.01 µM; TGI [14]: 19.1 µM; GI50 [16]: 18 µM; TGI [16]: 41.5 µM; GI50 [17]: 8.52 µM; TGI [17]: 29.1 µM; GI50 [18]: 8.79 µM; TGI [18]: > 100 µM; TGI [19]: 65.4 µM; GI50 [20]: 4.88 µM; TGI [20]: > 100 µM; GI50 [21]: 13.6 µM; TGI [21]: 30 µM; GI50 [22]: 15.3 µM; TGI [22]: 31.6 µM; GI50 [53]: 18.9 µM; TGI [53]: 73.3 µM; GI50 [23]: 8.36 µM; TGI [23]: 40.1 µM; GI50 [24]: 14.3 µM; TGI [24]: 29.3 µM; GI50 [25]: 18.6 µM; TGI [25]: 39.9 µM; GI50 [26]: 0.748 µM; TGI [26]: 3.49 µM; GI50 [54]: 17.3 µM; TGI [54]: 38 µM; GI50 [27]: 9.02 µM; TGI [27]: 25.6 µM; GI50 [28]: 7.16 µM; TGI [28]: 26.9 µM; GI50 [29]: 9.61 µM; TGI [29]: > 100 µM; GI50 [30]: 48 µM; TGI [30]: > 100 µM; GI50 [31]: 19.1 µM; TGI [31]: 39.9 µM; GI50 [32]: 20 µM; TGI [32]: 41.3 µM; GI50 [33]: 18 µM; TGI [33]: 33.2 µM; GI50 [34]: 5.54 µM; TGI [34]: 24.9 µM; GI50 [35]: 15 µM; TGI [35]: 36.5 µM; GI50 [36]: 19.1 µM; TGI [36]: 41.5 µM; GI50 [37]: 14.7 µM; TGI [37]: 42.4 µM; GI50 [38]: 11.1 µM; TGI [38]: 33.6 µM; GI50 [40]: 26.2 µM; TGI [40]: > 100 µM; GI50 [55]: 18.5 µM; TGI [55]: 35.7 µM; GI50 [41]: 16.4 µM; TGI [41]: 32.6 µM; GI50 [42]: 12.7 µM; TGI [42]: 28 µM; GI50 [43]: 16.8 µM; TGI [43]: 32.8 µM; GI50 [44]: 11.6 µM; TGI [44]: 30.4 µM; GI50 [56]: 0.562 µM; TGI [56]: 16.1 µM; GI50 [46]: 11 µM; TGI [46]: 30.6 µM; GI50 [57]: 13.2 µM; TGI [57]: 34.9 µM; GI50 [47]: 16.9 µM; TGI [47]: 41.3 µM; GI50 [48]: 13 µM; TGI [48]: 28.4 µM; GI50 [49]: 28.5 µM; TGI [49]: > 100 µM; GI50 [50]: 17 µM; TGI [50]: 32.2 µM; GI50 [51]: 19.1 µM; TGI [51]: 71.2 µM
